Measurements published in US8268635B2, “Methods of identifying agents that selectively activate p38 and/or NKkB signaling” (priority 2006, dated 2012).
Where no end group is shown, it is not given here.

Columns and labels:
JNK [1] = assay: JNK activity in adherent neutrophils; type: cell-based, human; details: neutrophils pre-adhered to plasma-coated dishes; 15 min; TNF 1000 U/ml, TNF70-80 10 μM
Description: Neutrophils were prepared from peripheral blood of healthy donors by a rapid single-step technique (Kumaratilake, L. M., Rathjen, D. A., Mack, P., Widmer, F., Prasertsiriroj, V., and Ferrante, A. (1995) J. Clin. Invest. 95: 2315-2323) using Hypaque-Ficoll and according to the institution's guidelines on human ethics. […] These were either used as cells in suspension or as adhered neutrophils by adding the cells to plasma coated plates as previously described (Powell, W., Gravel, S., Halwani, F., Hii, C. S., Huang, Z. H., Tan, A. M., and Ferrante, A. (1997) J. Immunol. 159: 2952-2959).
KHS (hereon referred to as “GCKR”) activity was assayed as described previously using myelin basic protein as a substrate (Shi, C. S., Leonardi, A., Kyriakis, J., Siebenlist, U., and Kerhl, J. H. (1999) J. Immunol. 163: 3279-3285). ASK-1 activation was determined in immunoprecipitates of ASK-1 by autophosphorylation (Kyriakis, J. M., and Auruch, J. (2001) Physiol. Rev. 81: 807-869). p38 and ERK activities were determined as described using myelin basic protein as a substrate (Hii, C. S., Huang, Z. H., Bilney, A., Costabile, M., Murray, A. W., Rathjen, D. A., Der, C. J., and Ferrante, A. (1998) J. Biol. Chem. 273: 19277-19282). […]

JNK [2] = assay: JNK activity in HUVEC (GST-jun solid phase assay); type: cell-based, human; details: 15 min; TNF 100 and 1000 U/ml, TNF70-80 1-50 μM
Description: The level of myelin basic protein phosphorylation was quantitated by an Instant Imager.
KHS (hereon referred to as “GCKR”) activity was assayed as described previously using myelin basic protein as a substrate (Shi, C. S., Leonardi, A., Kyriakis, J., Siebenlist, U., and Kerhl, J. H. (1999) J. Immunol. 163: 3279-3285). ASK-1 activation was determined in immunoprecipitates of ASK-1 by autophosphorylation (Kyriakis, J. M., and Auruch, J. (2001) Physiol. Rev. 81: 807-869). p38 and ERK activities were determined as described using myelin basic protein as a substrate (Hii, C. S., Huang, Z. H., Bilney, A., Costabile, M., Murray, A. W., Rathjen, D. A., Der, C. J., and Ferrante, A. (1998) J. Biol. Chem. 273: 19277-19282). […] A solid phase assay using glutathione-S-transferase (GST)-conjugated-jun (1-79) was employed to assay JNK activity (Hii, C. S., Huang, Z. H., Bilney, A., Costabile, M., Murray, A. W., Rathjen, D. A., Der, C. J., and Ferrante, A. (1998) J. Biol. Chem. 273: 19277-19282). Phosphorylated ASK-1, myelin basic protein and GST-jun (1-79) were fractionated on 8, 16 and 12% SDS polyacrylamide gels, respectively, and the bands were detected and radioactivity determined using an Instant Imager (Packard Instruments, Canberra, Australia).

NFκB = NFκB pathway activation in human neutrophils (nuclear translocation of NFκB); type: cell-based
Description: After cell lysis, nuclear fractions were prepared, nuclear proteins separated by SDS page (12% gel), transferred to nitrocellulose and probed with an anti NFκB p65 antibody (Santa Cruz).
Western blot analysis was conducted as described previously (Hii, C. S., Huang, Z. H., Bilney, A., Costabile, M., Murray, A. W., Rathjen, D. A., Der, C. J., and Ferrante, A. (1998) J. Biol. Chem. 273: 19277-19282). Briefly, equal amounts of denatured protein from each lysate were separated by 12% SDS polyacrylamide gel electrophoresis (PAGE). The proteins were electrophoretically transferred to nitrocellulose membranes (Schleicher and Schuell, Keene, N. H., USA)(3 h at 40V). […] Immune complexes were visualised by enhanced chemiluminescence (Hii, C. S., Huang, Z. H., Bilney, A., Costabile, M., Murray, A. W., Rathjen, D. A., Der, C. J., and Ferrante, A. (1998) J. Biol. Chem. 273: 19277-19282).
This pathway, akin to the p38 pathway, is dependent on TRAF-2 and RIP (Kyriakis, J. M., and Auruch, J. (2001) Physiol Rev. 81: 807-869). We measured the nuclear translocation of NFκB as an indicator of the activation of this pathway.

PSTHVLITHTI-OH [TNF70-80]
activity of JNK in adherent neutrophils (JNK [1]): but not TNF70-80 stimulated the activity of JNK | activity of JNK in HUVEC (JNK [2]): failed to stimulate the activity of JNK | nuclear translocation of NFκB in neutrophils (NFκB; TNF70-80 10 μM, 30 min or 1 h): caused the translocation of NFκB to the nucleus | degradation of IκB (NFκB; data not shown): caused the degradation of IκB
